Laboratory results taken from a melting point compilation (Tetko et al.).

Compound `O=C(O)Cc1ccccc1F` has a melting point of 63 °C.
In the case of `Cc1ccc(S(=O)(=O)N2C/C(=C\c3cccc(Cl)c3)N(S(=O)(=O)c3ccc(C)cc3)c3ccccc32)cc1`, the melting point was 145 °C.
For `c1ccc(C2OC2c2ccccc2)cc1` (stereo unspecified), the melting point was 67 to 70 °C.
Compound `CC(=O)Nc1ccc(Br)c(C(F)(F)F)c1` has a melting point of 116 to 119 °C.
In the case of `COc1cccc(-c2ccc(C(=O)O)o2)c1`, the melting point was 169 to 170 °C.
With `ClCOc1ccc(Cl)cc1` the melting point was 29 to 30 °C.
In the case of `O=C1/C(=C\c2ccc(Cl)cc2)SC(=S)N1CN1CCCCC1`, the melting point was 122 °C.
With `CCCCOc1ccc(/C=N/c2ccc(C(C)=O)cc2)cc1` the melting point was 80 to 128 °C.
In the case of `c1ccc(-c2csc3nc4ccccc4n23)cc1`, the melting point was 140 to 142 °C.
Compound `OCc1cccnc1Cl` has a melting point of 54 to 55 °C.
Compound `CCCCCCCCCCCCOc1ccc(C(C)=O)cc1OCCCCCCCCCCCC` has a melting point of 62 to 67 °C.
`CC(=O)Oc1ccc(C(=C2CCCCC2)c2ccc(OC(C)=O)cc2)cc1` gave a melting point of 136 °C.
For `Cc1cccc(Cl)c1N`, the melting point was 2 °C.
For `O=C(O)CC1CC(=O)OC1C(=O)O` (stereo unspecified), the melting point was 159 °C.
In the case of `CC(=O)N1C(C(=O)O)Cc2c([nH]c3ccccc23)C1(C)C` (stereo unspecified), the melting point was 160 °C.
In the case of `O=C(O)c1ccc(SSc2ccc(C(=O)O)cc2[N+](=O)[O-])c([N+](=O)[O-])c1`, the melting point was 308 °C.
With `O=P(c1ccccc1)(c1ccccc1)C1C=C(c2ccc(Br)cc2)OC(c2ccc(Br)cc2)=C1` the melting point was 193 to 194 °C.
`Fc1cccc(C(F)(F)F)c1` showed a melting point of -81.5 °C.
In the case of `CC(=O)/C(=N\Nc1ccc(Cl)cc1)C(=O)C(F)(F)F`, the melting point was 124 °C.
With `CN(CC(=O)O)C(=O)COC(=O)c1ccccc1` the melting point was 106 °C.
Work on `COC(=O)C1(C(=O)OC)Cc2ccc(OC)cc2C(=O)O1` yielded a melting point of 142 °C.
In the case of `CN(C)S(F)(F)F`, the melting point was -78.7 °C.
With `CN(CCCC(=O)c1cccnc1)N=O` the melting point was 67.5 °C.
With `CC(C)(C)c1csc(-c2ccc(C=O)cc2)n1` the melting point was 106 to 107 °C.
In the case of `CN1CCC23c4c5ccc(O)c4OC2C(=O)CCC3(O)C1C5` (stereo unspecified), the melting point was 248 °C.
`CC1=CC(=O)CC(C)(C)C1=O` gave a melting point of 26 to 28 °C.
With `COc1ccc(C=C2C(=O)NC(=O)NC2=O)cc1OC` the melting point was 265 °C.
Compound `CC(C)C(C)C(=O)O` (stereo unspecified) has a melting point of -1.5 °C.
With `CCCCCc1ccc(O)cc1O` the melting point was 72.5 °C.
`NNC(=O)c1ccc2c(c1)OCO2` gave a melting point of 174 °C.
In the case of `N#C/C(=N\Nc1ccc2ccccc2c1)c1nc(-c2ccc(Cl)cc2)cs1`, the melting point was 218 °C.
For `CCCCCCCCCCCCCCCCCc1ccccc1`, the melting point was 32 °C.
Work on `CN1CCN(C(c2ccccc2)c2ccccc2)CC1` yielded a melting point of 106 °C.
In the case of `OC(CBr)C(O)CBr` (racemic), the melting point was 82 to 84 °C.
Work on `COc1ccc(C/C(=N\O)C(=O)O)cc1` yielded a melting point of 159 °C.
Compound `O=C(O)c1cscc1C(=O)O` has a melting point of 227 to 231 °C.
In the case of `CCCCC(=O)N(C)C`, the melting point was -51 °C.
In the case of `Fc1cc2c(cc1F)Oc1cc(Br)c(Br)cc1O2`, the melting point was 210 °C.
`NC(=O)N1CCCCC1` showed a melting point of 105 °C.
`CCCCOC(=O)CCC(=O)OCCCC` gave a melting point of -29.2 °C.
Compound `CCOC(=O)c1c(C)oc(N)c1C(=O)OCC` has a melting point of 84 to 85 °C.
Work on `CCSC#N` yielded a melting point of -85.5 °C.
`Brc1cccc(Oc2ccc(Br)cc2Br)c1` showed a melting point of less than 20 °C.
`Oc1c(Cl)c(Cl)c(Cl)c(Cl)c1Cl` gave a melting point of 191 °C.
For `Cc1ccc(Nc2ccc([N+](=O)[O-])cc2N)cc1`, the melting point was 160 °C.
With `CC12CCC(/C(=C/Nc3ccc(Cl)cc3)C1=O)C2(C)C` (stereo unspecified) the melting point was 167 to 169 °C.
In the case of `O=C(O)C(F)(F)C(F)(F)C(F)(F)C(F)(F)C(F)(F)C(F)(F)C(F)(F)C(F)(F)C(F)(F)C(F)(F)C(F)(F)C(F)(F)C(F)(F)C(F)(F)C(F)(F)F`, the melting point was 154 to 155 °C.
For `Cc1csc(C(N)=O)c1`, the melting point was 115 to 117 °C.
Work on `O=C1c2ccccc2C(=O)N1CBr` yielded a melting point of 149 to 154 °C.
With `CSc1ncc(C(=O)O)n1Cc1ccccc1` the melting point was 178 to 179 °C.
Work on `O=[N+]([O-])c1cccc(-n2cccc2)c1` yielded a melting point of 72 to 74 °C.
Compound `Cc1nn(-c2ccccc2)c(C)c1C=O` has a melting point of 125 to 128 °C.
`CC12CCC(C(=O)/C(=C\c3ccccc3[N+](=O)[O-])C1=O)C2(C)C` (stereo unspecified) showed a melting point of 140 to 141 °C.
`Cc1cc(C#N)ccc1N` showed a melting point of 94 °C.
With `O=C(Cc1ccccc1)SSC(=O)Cc1ccccc1` the melting point was 59 °C.
With `CCCCCCCCCCCCCCCCCC(=O)OCCOCCOCCOCCO` the melting point was 40 °C.
Compound `Cc1ccccc1N=Nc1c(N)ccc2ccccc12` has a melting point of 126 °C.
In the case of `COc1ccc2c(c1)CCc1ccc3c(c1-2)c(=O)n(-c1ccccc1)n3C`, the melting point was 162 °C.
With `O=C(O)CCc1ccccc1` the melting point was 107 °C.
`Cc1nn(-c2cc(NS(C)(=O)=O)c(Cl)cc2Cl)c(=O)n1C(F)F` showed a melting point of 122 °C.
For `O=[N+]([O-])c1ccc(C2Nn3c(COc4ccccc4)nnc3S2)cc1` (stereo unspecified), the melting point was 184 °C.
`Oc1ccc(C2COc3cc(O)ccc3C2)cc1` (stereo unspecified) gave a melting point of 190 °C.
`Cc1ccc(C)c(CC(=O)O)c1` showed a melting point of 128 to 132 °C.
Work on `O=C(O)CC1(CC(=O)O)CCCCC1` yielded a melting point of 181 to 185 °C.
`O=c1[nH]n(C2C=CC3C4C=CC(C4)C32)c(=O)n1-c1ccccc1` (stereo unspecified) gave a melting point of 155 °C.
Work on `CCCCCCCOc1ccc(-c2ccc(C#N)cc2)cc1` yielded a melting point of 54 °C.
